The record followed here is PMC9101087, “A Sensitive LC-MS/MS Method for the Simultaneous Determination of Two Thia-Analogous Indirubin N-Glycosides and Indirubin-3′-Monoxime in Plasma and Cell Culture Medium” (Molecules, 2022).

This series in a line: Quantification of KD87 in plasma of mice after intraperitoneal injection. Format: in vivo. The note with it: male, NSG (NOD.Cg-Prkdc^scid Il2rg^tm1Wjl/SzJ), mouse, ip, 20 mg/kg, 20 mg/kg intraperitoneal, mean ± SD n = 8. The protocol: To apply the method validated for plasma, an animal experiment was performed in which KD87 (20 mg/kg body weight) was injected intraperitoneally into NOD.Cg-Prkdc^scid Il2rg^tm1Wjl/SzJ (NSG) mice followed by determination of the plasma concentration of KD87 at two fixed time points, i.e., 30 and 60 min, after administration. For this initial investigation, KD87 was selected because it has shown viability-reducing effects on a large panel of tumor cells both in the present study and in a previous study, making it a good candidate for future in vivo experiments.
Before starting plasma extraction and protein precipitation, 10 µL of the sample plasma was mixed with 40 µL of human plasma. After appropriate sample preparation by protein precipitation or liquid-liquid extraction, KD87 was successfully detected and quantified by LC-MS/MS. Here, for each blood draw, two separate plasma aliquots were extracted or precipitated and subsequently measured. In addition, the MRM transitions of the aglycone KD88 were monitored during the measurement to observe possible deglycosylation of KD87. […] Individual concentrations are presented for each mouse separately (Figure 5A,B) and as averages of the four treated mice (Figure 5C). For protein precipitation, a concentration of 1.89 ± 0.30 µM was determined 30 min after intraperitoneal injection, increasing to 2.93 ± 0.36 µM after 60 min (Figure 5C). Similar values are obtained after liquid-liquid extraction of plasma sample, which yielded a concentration of 2.19 ± 0.32 µM and 3.46 ± 0.50 µM after 30 and 60 min, respectively (Figure 5C).
Figure 5 Quantification of KD87 in plasma of mice 30 and 60 min after intraperitoneal injection of KD87 (20 mg/kg body weight). Prior to sample processing, mouse plasma was diluted 1:5 with human plasma. Shown are the individual values of KD87 in mouse plasma (A) after protein precipitation and (B) after liquid-liquid extraction, as well as (C) the average KD87 concentration values of all four mice for both processing methods. (A,B): The values of two separately processed plasma aliquots of one blood sample per mouse are shown. (C): The bar chart summarizes the results of measurements from panels (A,B), expressed as mean ± standard deviation (SD) of n = 8 values per column.
For experiments, four 13-week-old male NSG mice with a body weight between 20 and 30 g were used. KD87 was administered via intraperitoneal injection at a dose of 20 mg/kg body weight. For this purpose, KD87 was dissolved in ethanol and Cremophore EL (1:1) to a concentration of 6 mg/mL, and diluted further in sterile saline solution (NaCl 0.9%, B. Braun Melsungen AG, Melsungen, Germany) to a final concentration of 2 mg/mL. Per mouse, a total volume of 10 mL/kg of body weight was administered. […]

Regarding `O=C1/C(=C2/C(=O)N([C@@H]3O[C@H](CO)[C@@H](O)[C@H](O)[C@H]3O)c3ccccc32)Sc2ccccc21` [KD87, 3-[3′-oxo-benzo[b]thiophen-2′-(Z)-ylidene]-1-(β-D-glucopyranosyl)-oxindole], the concentration at 30 min came to 2190 ± 320 nM (liquid-liquid extraction) and 1890 ± 300 nM (protein precipitation). The concentration at 60 min runs as follows: (liquid-liquid extraction) 3460 ± 500 nM; (protein precipitation) 2930 ± 360 nM.
